For data set [1] the following is noted: in vivo; cited from earlier work.
For data set [2] the following is noted: cited from earlier work.
A short description of data set [3]: estimated blood plasma concentration of oxaliplatin in systemic therapy for colon cancer. Type of data set: in vivo, human. The settings on record: 85 mg per meter-squared, 145 mg total dose, 65 kg person, 5 liters of blood, assuming even distribution and constant rate of elimination.
For data set [4] the following is noted: rat, in vivo; cited from earlier work.
For data set [5] the following is noted: cited from earlier work. This is another data set of the same source.
[6] abbreviates: IV infusion of 20 mcg/kg over 24 hours.

The half-life is the time in which the quantity being followed falls by half.

Where two headings read alike, the source gives them in different places.

Consider `Nc1ncnc2c1ncn2[C@@H]1O[C@H](CO)[C@@H](O)[C@H]1O` [Adenosine, adenosine], for which, in data set [1], the “half-life (in words)” value is on record as “a few seconds”.

For the molecule `O=C(O)CCCc1ccc(N(CCCl)CCCl)cc1` [Chlorambucil, chlorambucil], the half-life result in data set [2] (in human) is recorded as “about 1.5 hours”.

On to `CC[C@H]1OC(=O)[C@H](C)[C@@H](O[C@H]2C[C@@](C)(OC)[C@@H](O)[C@H](C)O2)[C@H](C)[C@@H](O[C@@H]2O[C@H](C)C[C@H](N(C)C)[C@H]2O)[C@](C)(O)C[C@@H](C)C(=O)[C@H](C)[C@@H](O)[C@]1(C)O` [Erythromycin, erythromycin], for which the half-life result in data set [1] is given as “approximately 1.5 hours”.

Take `N.N.O=C([O-])C1(C(=O)[O-])CCC1.[Pt+2]` [carboplatin]: the half-life in data set [1] was 60 to 120 min.

With `COc1cc([C@@H]2c3cc4c(cc3[C@@H](O[C@@H]3O[C@@H]5CO[C@@H](C)O[C@H]5[C@H](O)[C@H]3O)[C@H]3COC(=O)[C@H]23)OCO4)cc(OC)c1O` [etoposide], in data set [2] (in children), the half-life entry is “about 3 hours”.

As for `O=C1[O][Pt]2([NH][C@@H]3CCCC[C@H]3[NH]2)[O]C1=O` [oxaliplatin], in data set [3], the blood plasma concentration result was “approximately 3 micrograms per milliliter”. Further, the half-life in data set [1] was 10 to 25 min.

In the case of `COc1ccc(C(CN(C)C)C2(O)CCCCC2)cc1` (centres unmarked) [venlafaxine], the half-life entry in data set [1] was “about 5 hours”.

Take NGF: nerve growth factor: the serum half-life result in data set [4] is given as “about 7.2 minutes”.

On to heparin, for which the half-life result in data set [1] is “around 1.5 hours”.

In the case of streptokinase, the half-life entry in data set [1] is “about 20 minutes”.

Turning to tissue plasminogen activator [TPA], in data set [1], the circulation half-life entry is given as “approximately 5 minutes”.

B1: NEUPOGEN® (Filgrastim): colony stimulating factor product, normally used systemically (protein, chains of the INN, looked up)
chain: MTPLGPASSLPQSFLLKCLEQVRKIQGDGAALQEKLCATYKLCHPEELVLLGHSLGIPWAPLSSCPSQALQLAGCLSQLHSGLFLYQGLLQALEGISPELGPTLDTLQLDVADFATTIWQQMEELGMAPALQPTQGAMPAFASAFQRRAGGVLVASHLQSFLEVSYRVLRHLAQP
For B1, in data set [5] (setting [6]), the mean serum concentration entry is “approximately 48 ng/mL” and the median serum concentration is on record as ~56 ng/mL. The maximum serum concentration in data set [5] (subcutaneous administration of 3.45 mcg/kg) was 4 ng/mL. Also, the maximum serum concentration in data set [5] (subcutaneous administration of 11.5 mcg/kg) is on record as 49 ng/mL. Moreover, the half-life entry in data set [1] is on record as “about 3.5 hours”.

(Values after patent US20090130017A1, “Targeted short-lived drug delivery” (Searete LLC, priority 2007, published 2009).)
